Experimental findings from US11597917B2, “In vitro and in vivo enrichment strategy targeting lymphocytes derived from vector transduced HSCs for therapy of disorders” (THE MEDICAL COLLEGE OF WISCONSIN, INC., priority 2017, dated 2023) are described below.

One data set concerns Fabry mice. Put plainly: In vivo enrichment in Fabry mice engrafted with transduced HSPCs: observation of toxicities. As to conditions: 0.15% MMF medicated chow ad libitum, 2 months of treatment.
The subject of data set [1] is Jurkat cells. Put plainly: α-gal A activity (4-MUG substrate) in lysates and supernatants of transduced Jurkat cells after MPA enrichment. The data set is classed as cell-based. Particulars: Jurkat cells transduced with dual promoter vector; 0.5 μM MPA, 16 days, then recovery; FIGS. 4E and 4F. How it is done: (§1) In this Example, Jurkat cells (immortalized T cells) are used. […] 3 cell lines were generated by transducing Jurkat cells with the vectors described or with protamine sulphate only as a mock. VCN/genome was adjusted by dilution of the transduced cells with mock transduced cells. Each of these were seeded in 4 replicates and either treated with DMSO (vehicle) or 0.5 μM MPA. Fresh media with drug or vehicle was added after centrifuging the cells and discarding old media every two days. Samples were taken for cell counts. After 16 days of treatment, cells were reseeded for recovery in fresh media for a total of four days, after which they were counted and reseeded again for two days for α-gal A activity assay or one day for gDNA.

Data set [2] has as its system Jurkat cells. Put plainly: Glucocerebrosidase activity in supernatant of transduced Jurkat cells after MPA enrichment (fluorometric assay). As to conditions: cells transduced with GBA+(IY) virus and treated with MPA (0.5 μM, 16 days); FIG. 13. The data set is classed as cell-based. The protocol:
Jurkat cells were transduced with lentivirus at an MOI of ˜0.1-0.2. Cells were cultured for at least 2 weeks prior to measuring baseline vector copy number. Cell lines for each of LV/GBA+eGFP and LV/GBA+(IY), or non-transduced cells were produced in this way. To measure enrichment, testing was carried out as described in Example 2. Briefly, cells at known densities were seeded in quadruplicate for each cell line, and maintained in culture for 16 days with either vehicle (DMSO) or 0.5 μM MPA, with media being replaced every two days. After treatment, cells were diluted and recovered for 4-8 days. gDNA was extracted from cells sampled from each well, and vector copy number analyses were carried out using qPCR. Cells from each well were also seeded at known and equal densities for 72 hours, after which supernatant was collected, cleared of cells and debris, and glucocerebrosidase activity measured using a fluorometric assay. Briefly, supernatants were incubated for 1 hour with substrate solution containing 4-methylumbelliferyl-beta-D-glucopyranoside (15 mM). The reaction was quenched with 0.1M glycine at pH 10 and fluorescence of the reaction product quantified against a calibration curve of the product.

The subject of data set [3] is Jurkat cells. In words: In vitro enrichment of transduced Jurkat cells with MPA: vector copy number per genome by qPCR. The data set is classed as cell-based. Particulars: Jurkat cells transduced with dual promoter vector; 0.5 μM MPA vs DMSO, 16 days; FIG. 4C. How it is done: as §1
VCN was determined by comparison to a standard curve using a qPCR based method and normalized to the number of beta actin (ACTB) copies to determine a per genome value. Patterned bars in the chart refer to samples treated with DMSO and solid bars refer to those treated with MPA.
A general note: Quantitative PCR measures a nucleic acid by following its amplification.

Procedure for Fabry mice: Briefly, male and female Fabry mice aged 2-5 months of age are treated with 5-fluorouracil (5-FU) to deplete bone marrow cells and enrich for HSPCs. Four days after treatment these mice are euthanized, and bone marrow is isolated from femurs and tibia, and processed for transduction. Cells are cultured in stem cell media and transduced using lentivirus described above for 12 hours at a multiplicity of infection (MOI) of 10. Transduced cells are then harvested and prepared for administration to recipient mice. Recipients are male Fabry mice aged approximately 2 months. These are irradiated prior to engrafting transduced cells to deplete their own hematopoietic system. Some cells are retained in culture for an extra 48 hours to assay transduction. Mice are kept on prophylactic antibiotics as support during immune recovery. Engraftment of transduced cells is assessed by measuring VCN/genome in circulation using a qPCR-based assay and comparing to a standard curve, and by measuring plasma α-gal A activity. MMF medicated chow may be started after stable engraftment has been achieved, typically after 4 months. […] A baseline bleed was done to confirm engraftment and the mice were given 0.15% MMF capsule (TEVA generics, Israel) medicated chow ad libitum, and bled every 15 days to observe changes in plasma α-gal A activity, which is a measure of enrichment. […]

As to `COc1c(C)c2c(c(O)c1C/C=C(\C)CCC(=O)OCCN1CCOCC1)C(=O)OC2` [MMF, mycophenolate mofetil], the drug-related toxicities entry in the data set with Fabry mice is “No drug-related toxicities were observed”.
As for `COc1c(C)c2c(c(O)c1C/C=C(\C)CCC(=O)O)C(=O)OC2` [MPA, mycophenolic acid], in the data set with Jurkat cells [1], the “α-gal A activity in cell lysates and culture supernatants” value was “corresponding increase in α-gal A activity”. Besides, the “enzyme activity in cell culture supernatant” value in the data set on Jurkat cells [2] is given as “increased enzyme activity”. Also, the “increase in the vector copy number of the total population per genome” value with Jurkat cells [3] is recorded as around 8 fold.
